PMC6150379, “Novel Triazole Hybrids of Betulin: Synthesis and Biological Activity Profile” (Molecules : A Journal of Synthetic Chemistry and Natural …, 2017)
Values after ≈ are worked out from the molar mass of the structure shown.

Experiments:
[1] = system: T47D (human ductal carcinoma); test: Cytotoxic activity, WST-1 assay; type: cell-based; conditions: for IC50 / IC50 ± SD: 72 h, Neg = negative in the concentration used; for potency relative to cisplatin: ratio of IC50 values
SNB-19 (glioblastoma) = test: Cytotoxic activity, WST-1 assay; type: cell-based, human; conditions: SNB-19, 72 h, Neg = negative in the concentration used
[2] = system: Colo-829 (human malignant melanoma); test: Cytotoxic activity, WST-1 assay; type: cell-based; conditions: Colo-829, 72 h, Neg = negative in the concentration used
[3] = system: C-32 (human amelanotic melanoma); test: Cytotoxic activity, WST-1 assay; type: cell-based; conditions: C-32, 72 h, Neg = negative in the concentration used
[4] = system: MCF-7 (human adenocarcinoma); test: Cytotoxic activity, WST-1 assay; type: cell-based; conditions: MCF-7, 72 h, Neg = negative in the concentration used
[5] = system: SKOV-3 human ovarian cancer cell line; test: Inhibition of tumor cell proliferation (MTT); conditions: SK-OV-3, 96 h, read-out: Max. Inhibition (% of Control)
Description: Antiproliferative activities of the compounds were measured by the MTT assay using A549 cells and a human ovarian cancer cell line SKOV-3 (adenocarcinoma ATCC® HTB77™). A total of 2 × 10^3 cells in DMEM medium supplemented with 5% FBS were placed in each well of a 96-well flat-bottom plate. After 24 h of incubation at 37 °C in 5% CO2, the growth medium was replaced by media containing different concentrations of the derivatives. Control cultures received cisplatin 0.1–10 μg/mL, and blank wells contained 100 μL of growth medium with no cells. After 96 h of incubation, cell proliferation was determined by the colorimetric MTT assay (570 nm) reading for each concentration compared with the control. At least three replicates for each sample were used to determine the cell proliferation.

in vitro = conditions: human
Description: The cytotoxic effect of compounds on A549 cells was determined by the MTT method, as previously described [36]. The MTT assay is the enzyme-based method, which use the 3-(4,5-dimethylthiazol-2-yl)-2,5-diphenyltetrazolium bromide as a reductive coloring agent. Briefly, subconfluent monolayers of A549 cells (2 × 10^4 cell/well in Dulbecco’s Minimal Essential Medium (DMEM) supplemented with 5% fetal bovine serum (FBS), antibiotics (100 U/mL penicillin and 100 μg/mL streptomycin), and 2 mM L-glutamine (all from Sigma Aldrich, St. Louis, MO, USA) were incubated in 96-multi-well plates in the presence of dilutions of the compounds ranging from 100 μg/mL to 0.5 μg/mL, in triplicate for 48 h at 37 °C in a humidified atmosphere with 5% CO2. After 48 h, 20 μL of MTT solution (Promega, Madison, WI, USA) was added to each well, and the microplates were kept at 37 °C/5% CO2 for 3 h. Then, the solubilization/stop solution containing SDS-HCl (100 μL/well) was added, and the absorbance values of the wells were measured at 570 nm using a 96-well plate reader (Multiskan RC spectrophotometer, Thermo Labsystems, Waltham, MA, USA). Cell viability (%) was calculated for each concentration as Abs treated/Abs control × 100, where Abs treated and Abs control are the absorbance readings for the wells with and without the tested compounds, respectively. The 50% cytotoxic concentration (CC50) was defined as the concentration that reduced cell viability by 50% with respect to controls without drugs. The CC50 value was calculated from the corresponding dose–response curves.

[6] = system: cytopathogenic bovine orphan virus (ECBO) strain LCR-4; test: Time of addition assay (post-adsorption), CPE/MTT in A549 cells; type: cell-based, cytopathogenic bovine orphan virus (BEV-1); conditions: for EC50: A549; for SI: selectivity index, ratio of CC50 to EC50, ECBO in A549 cells

| SMILES | IC50 ([1]; Homo sapiens) [µM] | IC50 (SNB-19 (glioblastoma); Homo sapiens) [µM] | IC50 ([2]; Homo sapiens) [µM] | IC50 ± SD [3] | IC50 ([4]; Homo sapiens, MCF7) [µM] | melting point [°C] | IC50 ± SD [4] | IC50 ± SD [1] | also measured |
| --- | --- | --- | --- | --- | --- | --- | --- | --- | --- |
| N.N.[Cl][Pt][Cl] [Cisplatin, reference compound] | – | – | – | – | – | – | – | – | IC50 [1]: 24.9 ± 1.1 µM; IC50 (SNB-19 (glioblastoma)): 2.3 ± 0.05 µM; IC50 [2]: 16.8 ± 1.7 µM; IC50 [3]: 12.3 ± 2.1 µM; IC50 [4]: 5.5 ± 1 µM |
| C=C(C)C1CC[C@]2(COC(=O)c3cn(Cc4ccccc4)nn3)CC[C@]3(C)C(CCC4[C@@]5(C)CC[C@H](O)C(C)(C)C5CC[C@]43C)C12 (some centres unmarked) [Compound 5a, 28-O-(1-Benzyl-1H-1,2,3-triazol-4-yl)carbonylbetulin] | 10.5 ± 0.09 | 96.2 ± 1.2 | 78.5 ± 8.3 | Neg | 58.8 ± 1.5 | 169 to 171 | – | – | inhibition at 25 µg/mL [5]: 40% |
| C=C(C)C1CC[C@]2(COC(=O)c3cn(Cc4ccc(F)cc4)nn3)CC[C@]3(C)C(CCC4[C@@]5(C)CC[C@H](O)C(C)(C)C5CC[C@]43C)C12 (some centres unmarked) [Compound 5b, 28-O-[1-(4-Fluorobenzyl)-1H-1,2,3-triazol-4-yl]carbonylbetulin] | 8.5 ± 0.02 | 66.1 ± 0.7 | 129 ± 7.7 | Neg | – | 144 to 147 | Neg | – | inhibition at 10 µg/mL [5]: 40% |
| C=C(C)C1CC[C@]2(COC(=O)c3cn(Cc4ccc(C#N)cc4)nn3)CC[C@]3(C)C(CCC4[C@@]5(C)CC[C@H](O)C(C)(C)C5CC[C@]43C)C12 (some centres unmarked) [Compound 5c, 28-O-[1-(4-Cyanobenzyl)-1H-1,2,3-triazol-4-yl]carbonylbetulin] | 1.4 ± 0.01 | 0.7 ± 0.08 | 9.7 ± 0.1 | Neg | – | 225 to 228 | Neg | – | – |
| C=C(C)C1CC[C@]2(COC(=O)c3cn(CSc4ccccc4)nn3)CC[C@]3(C)C(CCC4[C@@]5(C)CC[C@H](O)C(C)(C)C5CC[C@]43C)C12 (some centres unmarked) [Compound 5d, 28-O-(1-Phenylthiomethyl-1H-1,2,3-triazol-4-yl)carbonylbetulin] | 52.5 ± 1.4 | 13 ± 0.09 | 100 ± 5.5 | Neg | – | 143 to 146 | Neg | – | inhibition at 10 µg/mL [5]: 40% |
| C=C(C)C1CCC2(COC(=O)c3cn(C4OC(CO)C(O)C(O)C4O)nn3)CCC3(C)C(CCC4C5(C)CCC(O)C(C)(C)C5CCC43C)C12 [Compound 5f, 28-O-[1-(1-Deoxy-β-D-glucopyranosyl)-1H-1,2,3-triazol-4-yl]carbonylbetulin] | – | – | 110 ± 7.2 | Neg | – | 184 to 186 | Neg | total decay of cytotoxic activity and Neg | CC50 at 48 h (in vitro): 100 µg/mL (≈ 143 µM); IC50 ± SD (SNB-19 (glioblastoma)): Neg; inhibition at 25 µg/mL [5]: 35%; EC50 [6]: 5 µg/mL (≈ 7.14 µM); SI [6]: 20.0 |
| C=C(C)C1CC[C@]2(COC(=O)c3cn(CC(=O)OCC)nn3)CC[C@]3(C)C(CCC4[C@@]5(C)CC[C@H](O)C(C)(C)C5CC[C@]43C)C12 (some centres unmarked) [Compound 5g, 28-O-(1-Ethylacetyl-1H-1,2,3-triazol-4-yl)carbonylbetulin] | 135 ± 2.6 | 92.3 ± 0.9 | 11.4 ± 0.2 | Neg | – | 176 to 181 | Neg | – | – |
| C=C(C)C1CC[C@]2(COC(=O)c3cn(CCCO)nn3)CC[C@]3(C)C(CCC4[C@@]5(C)CC[C@H](O)C(C)(C)C5CC[C@]43C)C12 (some centres unmarked) [Compound 5h, 28-O-[1-(3-Hydroxypropyl)-1H-1,2,3-triazol-4-yl]carbonylbetulin] | 1.3 ± 0.05 | 9.9 ± 0.7 | 6.2 ± 0.6 | – | 15.5 ± 1.1 | – | – | – | CC50 at 48 h (in vitro): 27.7 µg/mL (≈ 46.5 µM); potency relative to cisplatin [1]: 19 fold; EC50 [6]: 0.5 µg/mL (≈ 0.839 µM); SI [6]: 55.5; IC50 ([3]; Homo sapiens): 80.3 ± 5.8 µM |
| C=C(C)C1CC[C@]2(COC(=O)c3cn(CCCN)nn3)CC[C@]3(C)C(CCC4[C@@]5(C)CC[C@H](O)C(C)(C)C5CC[C@]43C)C12 (some centres unmarked) [Compound 5i, 28-O-[1-(3-Aminopropyl)-1H-1,2,3-triazol-4-yl]carbonylbetulin] | 3.63 ± 0.3 | 0.9 ± 0.03 | 0.6 ± 0.13 | – | 6.94 ± 0.8 | 156 to 160 | – | – | IC50 ([3]; Homo sapiens): 7.9 ± 0.9 µM |
| C=C(C)C1CC[C@]2(COC(=O)c3cn(CC(N)C(=O)O)nn3)CC[C@]3(C)C(CCC4[C@@]5(C)CC[C@H](O)C(C)(C)C5CC[C@]43C)C12 (some centres unmarked) [Compound 5j, 2-Amino-3-[4-(28-O-betulinylcarbonyl)-1H-1,2,3-triazol-1-yl]propanoic acid] | – | – | 3.3 ± 1.1 | Neg | – | 265 to 269 | Neg | total decay of cytotoxic activity and Neg | CC50 at 48 h (in vitro): 100 µg/mL (≈ 160 µM); IC50 ± SD (SNB-19 (glioblastoma)): Neg; inhibition at 10 µg/mL [5]: 40%; EC50 [6]: 5 µg/mL (≈ 8 µM); SI [6]: 20.0 |
| C=C(C)C1CC[C@]2(COC(=O)c3cn(C(C(=O)O)C(C)C)nn3)CC[C@]3(C)C(CCC4[C@@]5(C)CC[C@H](O)C(C)(C)C5CC[C@]43C)C12 (some centres unmarked) [Compound 5k] | 7.2 ± 0.2 | 6.3 ± 0.9 | 8.7 ± 0.5 | – | 37.2 ± 0.7 | 293 to 297 | – | – | IC50 ([3]; Homo sapiens): 46.9 ± 2.5 µM |
| C=C(C)C1CC[C@]2(COC(=O)c3cn(Cc4ccccc4)nn3)CC[C@]3(C)C(CCC4[C@@]5(C)CC[C@H](OC(=O)c6cn(Cc7ccccc7)nn6)C(C)(C)C5CC[C@]43C)C12 (some centres unmarked) [Compound 6a, 3,28-O,O’-Di[(1-benzyl-1H-1,2,3-triazol-4-yl)carbonyl]betulin] | – | 24.4 ± 1.3 | 80.7 ± 1.8 | Neg | – | 117 to 120 | Neg | Neg | – |
| C=C(C)C1CC[C@]2(COC(=O)c3cn(Cc4ccc(F)cc4)nn3)CC[C@]3(C)C(CCC4[C@@]5(C)CC[C@H](OC(=O)c6cn(Cc7ccc(F)cc7)nn6)C(C)(C)C5CC[C@]43C)C12 (some centres unmarked) [Compound 6b, 3,28-O,O’-Di[1-(4-fluorobenzyl-1H-1,2,3-triazol-4-yl)carbonyl]betulin] | 0.05 ± 0.01 | 0.08 ± 0.01 | – | Neg | 0.09 ± 0.01 | 155 to 158 | – | – | potency relative to cisplatin [1]: 500 fold; IC50 ± SD [2]: Neg |
| C=C(C)C1CC[C@]2(COC(=O)c3cn(Cc4ccc(C#N)cc4)nn3)CC[C@]3(C)C(CCC4[C@@]5(C)CC[C@H](OC(=O)c6cn(Cc7ccc(C#N)cc7)nn6)C(C)(C)C5CC[C@]43C)C12 (some centres unmarked) [Compound 6c, 3,28-O,O’-Di[1-(4-cyanobenzyl-1H-1,2,3-triazol-4-yl)carbonyl]betulin] | 1.1 ± 0.01 | 0.06 ± 0.01 | – | Neg | 60.7 ± 0.6 | – | – | – | IC50 ± SD [2]: Neg |
| C=C(C)C1CC[C@]2(COC(=O)c3cn(CSc4ccccc4)nn3)CC[C@]3(C)C(CCC4[C@@]5(C)CC[C@H](OC(=O)c6cn(CSc7ccccc7)nn6)C(C)(C)C5CC[C@]43C)C12 (some centres unmarked) [Compound 6d, 3,28-O,O’-Di[(1-phenylthiomethyl-1H-1,2,3-triazol-4-yl)carbonyl]betulin] | 0.9 ± 0.05 | 0.5 ± 0.02 | 103 ± 4.7 | – | 0.9 ± 0.08 | 127 to 131 | – | – | IC50 ([3]; Homo sapiens): 100 ± 2.8 µM |
| C=C(C)C1CCC2(COC(=O)c3cn(C4CC(n5cc(C)c(=O)[nH]c5=O)OC4CO)nn3)CCC3(C)C(CCC4C5(C)CCC(OC(=O)c6cn(C7CC(n8cc(C)c(=O)[nH]c8=O)OC7CO)nn6)C(C)(C)C5CCC43C)C12 (centres unmarked) [Compound 6e, 3,28-O,O’-Di[1-(3′-deoxythymidine-5′-yl-1H-1,2,3-triazol-4-yl)carbonyl]betulin] | – | – | – | total decay of cytotoxic effect and Neg | – | 224 to 227 | total decay of cytotoxic effect and Neg | total decay of cytotoxic effect and Neg | IC50 ± SD (SNB-19 (glioblastoma)): total decay of cytotoxic effect and Neg; IC50 ± SD [2]: total decay of cytotoxic effect and Neg |
| C=C(C)C1CCC2(COC(=O)c3cn(C4OC(CO)C(O)C(O)C4O)nn3)CCC3(C)C(CCC4C5(C)CCC(OC(=O)c6cn(C7OC(CO)C(O)C(O)C7O)nn6)C(C)(C)C5CCC43C)C12 [Compound 6f, 3,28-O,O’-Di[1-(1-deoxy-β-D-glucopyranosyl-1H-1,2,3-triazol-4-yl)carbonyl]betulin] | – | – | – | total decay of cytotoxic effect and Neg | – | – | total decay of cytotoxic effect and Neg | total decay of cytotoxic effect and Neg | CC50 at 48 h (in vitro): 100 µg/mL (≈ 104 µM); IC50 ± SD (SNB-19 (glioblastoma)): total decay of cytotoxic effect and Neg; IC50 ± SD [2]: total decay of cytotoxic effect and Neg; EC50 [6]: 5 µg/mL (≈ 5.22 µM); SI [6]: 20.0 |
| C=C(C)C1CC[C@]2(COC(=O)c3cn(CC(=O)OCC)nn3)CC[C@]3(C)C(CCC4[C@@]5(C)CC[C@H](OC(=O)c6cn(CC(=O)OCC)nn6)C(C)(C)C5CC[C@]43C)C12 (some centres unmarked) [Compound 6g, 3,28-O,O’-Di-[(1-ethylacetyl-1H-1,2,3-triazol-4-yl)carbonyl]betulin] | – | – | 97.6 ± 3.3 | Neg | – | – | Neg | Neg | IC50 ± SD (SNB-19 (glioblastoma)): Neg |
